In EP1501797B1, “3-(SUBSTITUTED AMINO)-1H-INDOLE-2-CARBOXYLIC ACID ESTER AND 3-(SUBSTITUTED AMINO)-BENZO[B]THIOPHENE-2-CARBOXYLIC ACID ESTER DERIVATIVES AS INTERLEUKIN-4 GENE EXPRESSION INHIBITORS” (Aventis Pharmaceuticals Inc., priority 2002, dated 2003):
Where a name gives a salt, the structure may show the parent alone. Starred links: 1 amine or outer side, 2 acyl side, 3 side chain; linkers in the order of their positions; H or OH if unused. Positions of bridges follow the written chain, without caps; N, C: chain ends. Non-standard residues stand in square brackets, D forms with d. Residues, ends and D or L forms follow the SMILES beside them. Chains are numbered I, II in the order given. Actinocin(9to1) = Cc1c2oc3c(C)ccc(C(=O)[*:1])c3nc-2c(C(=O)[*:2])c(N)c1=O; NMeV = CN[C@H](C(=O)O)C(C)C; Sar = CNCC(=O)O

What was measured:
IL-5 = assay: Human primary Th2 cells, anti-CD3/anti-CD28 activated, IL-5 ELISA; format: cell-based; conditions: human primary Th2 cells, anti-CD3 and anti-CD28 (Table 5)
Procedure: (§1) Briefly, CD4^+CD45RA^+ T cells, isolated from donor peripheral blood mononuclear cells of healthy donors, are educated in the presence of anti-CD3/CD28 antibodies and various growth factors to obtain either a Thl-like or Th2-like phenotypes as determined by the known cytokine profiles of these two cell types.
(§2) Peripheral blood mononuclear cells (PBMC) are prepared from human blood by Ficoll-Hypacque (Pharmacia). The cells are washed two times in Hanks balanced salt solution (HBSS) and counted.
(§3) Naive T cells (CD4^+/CD45RA ) are prepared by negative selection method using following antibodies and Dynabeads: anti-CD8, anti-HLA-DR, (where HLA means human leucocyte antigen) anti-CD14, anti-CD16, anti-CD19, anti-CD45RO antibodies (all from R&D Systems, 1-2 µg/ml) are added to the cells, and the cells are kept on ice for 30 min. The cells are washed two times in HBSS, and goat anti- mouse Ig-beads, (bead:target ratio, 5:1) are added. The cells and beads are slowly rotated at 4°C for 20 min. (following the protocol supplied from Dynal). The supernatant is removed and fresh goat anti-mouse Ig-beads are added to the supernatant, which is slowly rotated at 4°C for 20 min. The cells are counted and phenotypically characterized by flow cytometric analysis.
(§4) CD4^+/CD45RA^+ cells at a density of 10^6/ml in RPMI, is prepared and added to RPMI medium containing 10% Hyclone serum/ glutamine and 1-2 µg/ml anti-CD28 Ab. The cells are split in two aliquots. For Th1 cells: anti-IL-4 Ab (1-2 µg/ml), IFN-γ (1 µg/ml, or 5000 units/ml) are added to the wells. For Th2 cells: IL-4 (100-200 ng/ml), anti-IFN-γ neutralizing Ab (1-2 µg/ml), anti-IL-12 neutralizing Ab (1-2 µg/ml) are added into the wells. […] The cells are transferred to fresh wells and grown in 200 units/ml IL-2 for 2 weeks by feeding them every other day with IL-2 containing medium and splitting the cultures 1:2 or 1:3 as needed. The degree of polarization is determined by intracellular staining of cells with anti-IFN-γ and anti-IL-4 antibodies from Pharmingen, and using flow cytometry from Becton Dickinson (BD), according to manufacturers description. The cells are stimulated with PHA and alloantigens at day 14 and 28 as described below. Eight days after the second allostimulation the cells can be used for compound screening or frozen for future use. For compound testing, large quantities of Th1 and Th2 cells derived from a given donor (NYTh1 and NYTh2) were expanded and frozen as aliquots in liquid nitrogen. The cells are thawed and cultured as and when needed. The thawed cells are stimulated with alloantigen/PHA combination. The cells are used for compound screening after 8-10 days in culture.
(§5) Re-stimulation by allogeneic cells: Human PBMCs, to be used as alloantigens, are isolated from freshly drawn blood by Ficoll separation. […] Cells are counted and diluted to a final concentration of 2 x 10^6/ml in medium containing 10 µg/ml PHA and 200 units/ml IL-2.
(§6) Ninetysix well Falcon tissue culture plates (Fisher Scientific) are coated with 100 microliters per well of 10 µg/ml anti-CD3 (PharMingen) antibody in phosphate buffered saline (PBS) and stored at 4°C one day before the experiment.
(§7) On the day of assay, anti-CD3 antibody coated plates are washed with PBS once to remove all soluble anti-CD3 antibody. […] All compounds and controls are assayed in triplicates.

IL-4 [1] = assay: Human primary Th2 cells, anti-CD3/anti-CD28 activated, IL-4 ELISA; format: cell-based; conditions: human primary Th2 cells, anti-CD3 and anti-CD28 (Table 5)
Procedure: as §1, §2, §3, §4, §5, §6, §7

IL-4 [2] = assay: In vivo ovalbumin (OVA) mouse model, BALF IL-4; design: species or system mice
Procedure: This model is designed to determine the ability of a test article to modulate an antigen-induced pulmonary inflammatory cell accumulation in sensitized Balb/c mice from Charles River Laboratories. The mice are given a two week time period from arrival date prior to sensitizations.
On days 0, 7, 14, each animal is injected intraperitoneal (i.p.) with a 0.2 ml Ovalbumin Hydragel solution. Each animal receives 10 µg of Ovalbumin in 0.2 mL of Hydragel, aluminum hydroxide adsorptive gel containing 2% aluminum oxide. […] On day 22, BALF samples are collected from one group of animals and used for cytokine analysis. On day 24, BALF is obtained from a second group of animals and used for differential cell counts.
Test System: Female Babl/cJ mice (Jackson Laboratories), approximately 6-9 weeks old, each weighing approximately 20 to 25 grams, are divided into ten animals per group.
Sensitization Regimen: Mice are sensitized by an intraperitoneal injection of 10 µg ovalbumin (OVA) mixed in 4 mg aluminum hydroxide Al(OH)3 gel suspension in 0.2 ml sterile saline on Days 0, 7 and 14. This suspension is prepared one hour before intraperitoneal injection into each mouse. The animals are ready for OVA challenge on Day 21.
Antigen Challenge: Animals are exposed to aerosolized OVA on day 21 (5% w/v in sterile saline) for 20 minutes. The aerosol is generated by a PARI-Master nebulizer, the outlet of which is connected to a small Plexiglas® chamber containing the animals. Bronchoalveolar lavage is performed on Day 22.
Method of Study Performance: On day 24, 72 hours following aerosol OVA exposure, a separate group of animals are anesthetized with urethane (0.15 - 0.2 gm/kg) and the trachea is exposed and cannulated. Lungs are lavaged with 2 x 0.5 ml Hank's balanced salt solution without Ca^2+ and Mg^2+ (HBSS; Gibco, Grand Island, NY) containing 0.1% EDTA. Lavage fluid is recovered after 30 sec by gentle aspiration and pooled for each animal. Samples are centrifuged at 2000 rpm for 15 minutes at 5°C. After centrifugation, individual supernatants are stored frozen at -80°C. The resulting pellet is resuspended in 0.5 ml of HBSS containing 0.1% EDTA. Total cells and eosinophils are determined using a Technicon Hl and cytoslides, respectively.
Administration of the Test/Control Article: The test article and vehicle dosing preparations are administered once to each anesthetized mouse intranasally using a 200 µl pipette at 30-60 minutes prior to OVA challenge. Each animal receives 50 µl (25 µl/nostril) at each time point. Method of Euthanasia: Urethane overdose at in-life completion.
Compounds administered 30 minutes before aerosol ovalbumin challenge in ova sensitized mice. BALF harvested 24 hours after aerosol challenge. N = 6/group.
Mice (12 animals per group) are sensitized with 0.2 ml of an AlOH3 hydrogel suspension (2% AlOH3) containing 50 µg/ml ovalbumin on days 0, 7 and 14. […] The glucocorticosteroid budesonide (10 mg/kg) is included as a control. All compounds are given in 0.5% methylcellulose/0.2% Tween 80, intranasally (50µl). After the OVA challenge for 24 hours, the mice underwent bronchoalveolar lavage and IL-4 and IL-13 levels in the BALF are determined by ELISA. Another group of mice underwent bronchoalveolar lavage (72 hours after treatment) to determine the number of the eosinophils (*p<0.05, **p<0.01).
Compounds are given (30 mg/kg), intranasally, once, 30 min before OVA challenge unless noted otherwise. BAL fluids are collected 24 hours after OVA challenge and the cytokine levels are measured by standard ELISAs.

eosinophils = assay: In vivo ovalbumin (OVA) mouse model, BALF eosinophils; design: species or system mice; conditions: i.n.
Procedure: On days 0, 7, 14, each animal is injected intraperitoneal (i.p.) with a 0.2 ml Ovalbumin Hydragel solution. Each animal receives 10 µg of Ovalbumin in 0.2 mL of Hydragel, aluminum hydroxide adsorptive gel containing 2% aluminum oxide. […] On day 24, BALF is obtained from a second group of animals and used for differential cell counts. […]
Sensitization Regimen: Mice are sensitized by an intraperitoneal injection of 10 µg ovalbumin (OVA) mixed in 4 mg aluminum hydroxide Al(OH)3 gel suspension in 0.2 ml sterile saline on Days 0, 7 and 14. […] The animals are ready for OVA challenge on Day 21. […]
Method of Study Performance: On day 24, 72 hours following aerosol OVA exposure, a separate group of animals are anesthetized with urethane (0.15 - 0.2 gm/kg) and the trachea is exposed and cannulated. […] Total cells and eosinophils are determined using a Technicon Hl and cytoslides, respectively. […]
Compounds are given (30 mg/kg), intranasally, once, 30 min before OVA challenge unless noted otherwise. […] From a parallel set of animals, BAL are collected at 48 hours and the number of eosinophils are determined.

IL-13 = assay: Human primary Th2 cells, anti-CD3/anti-CD28 activated, IL-13 ELISA; format: cell-based; conditions: human primary Th2 cells, anti-CD3 and anti-CD28 (Table 5)
Procedure: as §1, §2, §3, §4, §5, §6, §7

IFN-γ = assay: Human primary Th2 cells, anti-CD3/anti-CD28 activated, IFN-γ ELISA; format: cell-based; conditions: human primary Th2 cells, anti-CD3 and anti-CD28 (Table 5)
Procedure: as §1, §2, §3, §4, §5, §6, §7

Human Th2 cells = assay: Human primary Th2 cells, proliferation (viability, MTS assay); format: cell-based; conditions: human primary Th2 cells, anti-CD3 and anti-CD28 (Table 5); read-out: Prolif. IC50
Procedure: as §1, §2, §3, §4, §5, §6, §7

Swiss 3T3 fibroblasts = assay: In vitro cytotoxicity assay on contact inhibited 3T3 fibroblasts (MTS); conditions: for % control (viability of quiescent 3T3 cells): 2 day incubation
Procedure: A third assay utilized in the present invention involves an in vitro cytotoxicity assay. This assay is used to further characterize the compounds in order to assess toxic activities of compounds on contact inhibited, non-dividing 3T3 fibroblasts. Other toxicity assays may be used.
Contact inhibited Swiss 3T3 fibroblasts are purchased from ATCC. The cells are maintained in 1640 RPMI supplemented with 10% fetal bovine serum (Gibco).
On day of assay, cells are detached from flasks by trypsinization, washed in medium and counted. 100 microliters of 2.5 x 10^4 cells per well are plated into Falcon brand 96 well tissue culture plates and cells incubated at 37°C in presence of 5% CO2 for 2 days or until confluent.
[…] All compound dilutions are assayed in triplicate. […] Cells are returned to the incubator for 2 days.
After 2 day incubation, the 3T3 cells are assayed for viability using an MTS Assay Kit (Promega). Media is added to blank wells for background calculations. After 2 hours incubation in kit reagent, the optical density at 490 nm for each compound and control is determined by plate reader.
Results are expressed as percent cytotoxicity, i.e., (mean OD of compound wells - background OD)/ (mean OD of controls - background).
Note that starting concentration of CsA was 1 µM. […]

| Structure (SMILES) | IC50 (IL-5) | IC50 (IL-4 [1]) | IL-4 % ctl At 24hours (IL-4 [2]; i.n., 10 mg/kg) | IL-4 % ctl At 24hours (IL-4 [2]; i.n., 12 mg/kg) | IL-4 % ctl At 24hours (IL-4 [2]; i.n., 30 mg/kg, once, 30 min before OVA challenge) | IL-4 % ctl At 24hours (IL-4 [2]; i.p., 30 mg/kg) | Eos % ctl At 72hours (eosinophils; 10 mg/kg) | Eos % ctl At 72hours (eosinophils; 30 mg/kg) | IC50 (IL-13) | IC50 (IFN-γ) | IC50 (Human Th2 cells) | % control (viability of quiescent 3T3 cells) (Swiss 3T3 fibroblasts; 0.001 µM) | % control (viability of quiescent 3T3 cells) (Swiss 3T3 fibroblasts; 0.003 µM) | % control (viability of quiescent 3T3 cells) (Swiss 3T3 fibroblasts; 0.01 µM) | % control (viability of quiescent 3T3 cells) (Swiss 3T3 fibroblasts; 0.03 µM) | % control (viability of quiescent 3T3 cells) (Swiss 3T3 fibroblasts; 0.1 µM) | % control (viability of quiescent 3T3 cells) (Swiss 3T3 fibroblasts; 3 µM) | % control (viability of quiescent 3T3 cells) (Swiss 3T3 fibroblasts; 10 µM) | toxic effects on the viability of quiescent 3T3 cells (in words) (Swiss 3T3 fibroblasts; non-dividing 3T3 cells) |
| --- | --- | --- | --- | --- | --- | --- | --- | --- | --- | --- | --- | --- | --- | --- | --- | --- | --- | --- | --- |
| O=C(O)c1[nH]c2ccccc2c1Nc1ccncc1 [Example 28 (maleate salt)] | > 10 µM | 240 nM | 57 % ctl | 50 % ctl | 34 % ctl | 43 % ctl | 53 % ctl | 28 % ctl | ~10 µM | > 10 µM | > 10 µM |  |  |  |  |  |  |  |  |
| Cc1c2oc3c(C)ccc(C(=O)N[C@@H]4C(=O)N[C@H](C(C)C)C(=O)N5CCC[C@H]5C(=O)N(C)CC(=O)N(C)[C@@H](C(C)C)C(=O)O[C@@H]4C)c3nc-2c(C(=O)N[C@@H]2C(=O)N[C@H](C(C)C)C(=O)N3CCC[C@H]3C(=O)N(C)CC(=O)N(C)[C@@H](C(C)C)C(=O)O[C@@H]2C)c(N)c1=O [Actinomycin D] (I: T[dV]P[Sar][NMeV] / II: T[dV]P[Sar][NMeV]; ester I:1-I:C, II:1-II:C; linker I:N-II:N via Actinocin(9to1)) |  |  |  |  |  |  |  |  |  |  |  | 79.0 % control | 74.9 % control | 67.2 % control | 33.9 % control | 28.2 % control | 29.7 % control | 16.8 % control | effected the viability |
